Measurements taken from patent publication US11208405B2, “Pyrrole derivatives as PLK1 inhibitors” (SENTINEL ONCOLOGY LIMITED, priority 2017, dated 2021).
Structures can show the parent of a compound that is named as a salt.

How the values were obtained:
HeLa cells = assay: Arresting cells in mitosis (Mitotic Index, phosphorylated Histone H3 immunofluorescence); format: cell-based; settings: HeLa cell line, 24 hours; for EC50: Homo sapiens, Mitotic Index, read-out: EC50
Method: Assay to Measure the Effects of Compounds of the Invention on Arresting Cells in Mitosis
Inhibiting the ability of PLK1 to bind to its phosphopeptide binding partners through the PBD causes cells to arrest in mitosis. Experimentally, this is measured by assessing the number of cells which are in mitosis at a certain time after treatment with a PLK1-PBD inhibitor by immunofluorescent detection of phosphorylated Histone H3 (pH3), a marker which is only present in mitotic cells. PLK1-PBD inhibitors are expected to cause a dose-dependent increase in pH3-positive cells, which is reported as Mitotic Index (MI)—the percentage of cells which, at a given time, are positive for this mitotic mark. The following protocol has been used to measure MI: • 1. Plate HeLa cells at 10,000/well in 100 μL/well in clear flat-bottom 96-well plates and incubate overnight. • 2. Immediately prior to treatment, dilute compounds in medium in a 96-well round-bottom plate. Make up all compounds at 5 times final desired concentration on cells, and serially dilute 1:2 across the plate ensuring that there is 100 μL of each concentration (start with 200 μl of the top concentration on the left of the plate). […] Treat cells by adding 25 μL from the compound dilution plate to triplicate wells. • 4. Incubate cells with compound for 24 hours. • 5. After 24 hours, fixation and staining is carried out as follows: • 6. Dilute 37% formaldehyde in PBS to give a 12.95% solution by adding 3.5 mL formaldehyde to 6.5 mL of PBS. • 7. Add 50 μL of formaldehyde fixation solution directly to each well of cells (which already contain 125 μL medium). • 8. Incubate at room temp for 10 minutes. • 9. Remove fixative and add 100 μL/well PBS+0.1% Triton X-100 for 10 minutes. • 10. Aspirate and add 100 μL/well PBS+1% BSA. • 11. Aspirate and add 50 μL/well of primary antibody (anti-PH3 [1:2000]/anti-MPM2 [1:1000]) diluted in PBS+1% BSA. Incubate for 1 hour. • 12. Wash×2 with 100 μL/well PBS+1% BSA. • 13. Add 50 μL/well of secondary antibody plus Hoechst stain (anti-rabbit Alexafluor 488 [1:500]; anti-mouse Alexafluor 546 [1:500]+Hoechst 33342 [1:2500 final concentration=4 μg/mL])diluted in PBS+1% BSA. Incubate for 1 hour. • 14. Wash twice with 100 μL/well PBS+1% BSA. • 15. Aspirate and add 100 μL/well PBS. Plates can be stored at 4° C. in PBS for several weeks before scanning on the Cellomics Arrayscan. […] Scan on Cellomics using Target Activation Bioapplication. • 17. MI data emerging from the Cellomic Bioapplication can be used to plot MI versus compound concentration, and subsequently used to generate an EC50 value for each compound using an appropriate graphing/curve-fitting package such as GraphPad Prism.

HCT116 cells = assay: Effects on HCT116 colorectal cancer cell viability (cell titre blue, 72 hours); format: cell-based; settings: Homo sapiens, HCT-116, HCT116 cell line
Method: Assay to Measure the Effects of Compounds of the Invention on HCT116 Colorectal Cancer Cell Viability
The following protocol was used to measure the effects of compounds of the invention on HCT116 cell viability.
1. HCT116 cells were grown in RPM11640 media supplemented with Glutamax and 10% FBS in a 37° C./5% CO2 incubator.
2. Growing culture of HCT116 cells were trypsinised, counted and diluted to give 10,000 cells/mL in an appropriate volume, allowing at least 6 mL of cells per plate.
3. 200 μL of PBS were added to all the outer wells of a flat-bottomed (8×12) 96-well TC plate. 100 μL of media were added only to wells in column 11 of the plates (these wells provided a blank for the cell titre blue assay). Two compounds were assayed on each plate.
4. 100 ul of 10,000 cells/mL HCT116s were plated in rows B-G of each plate.
5. The cells were incubated (37° C. 5% CO2) for 24 hours before treating with compounds.
6. An 8 mM compound stock in DMSO was prepared for all compounds to be tested. 2.5 μL of the compound stock was added to 1000 μL growth medium in a 96-well deep well block and serial dilutions were prepared across the plate by transferring 500 μL into wells containing 500 μL growth medium+0.25% DMSO to give eight concentrations of compound (this ensured a constant amount of DMSO at all concentrations of compound). When making up growth medium+DMSO, an amount of 5 ml was allowed per compound to be diluted.
7. 3 rows of cells were treated with 100 μL/well from each row on the dilution plate so that each cell plate is treated with a single compound. This gave a final volume in all wells of 200 μL and a titration of compound from a final concentration of 10 uM down to 78 nM.
8. The cells were incubated (37° C. 5% CO2) for 72 hours.
9. 5 ul cell titre blue reagent (Promega) were added to all wells except the edge wells (which contain PBS only) and incubated (37° C. 5% CO2) for 2.5-3 hours.
10. Fluorescence was measured on a suitable plate reader using a 530-570 nm filter set for excitation and a 580-620 nm filter set for fluorescence emission.
11. Data were analysed using an appropriate graphing package (such as GraphPad Prism). Data were expressed as the concentration of compound causing a 50% inhibition of cell viability or GI50.

Row | SMILES | % mitotic cells (HeLa cells) | EC50 (HeLa cells) | GI50 (HCT116 cells)
1 | CN(C)CCNC(=O)c1cccc(-c2ccc(-c3ccccc3)n2-c2ccccc2C(F)(F)F)c1 [Example 3, hydrochloride] | 65% | 1580 nM | 
2 | CN(C)CCNC(=O)c1cccc(-c2ccc(-c3ccc(Br)cc3)n2-c2ccc(Cl)cc2C(F)(F)F)c1 [Example 4, hydrochloride] | 65% | 550 nM | 
3 | CN(C)CCNC(=O)c1cccc(-c2ccc(-c3ccc(Br)cc3)n2-c2cnccc2C(F)(F)F)c1 [Example 6] | 86% | 660 nM | 200 nM
4 | CN(C)Cc1cccc(-c2ccc(-c3ccc(Br)cc3)n2-c2ccccc2C(F)(F)F)c1 [Example 7, 1-[3-[5-(4-bromophenyl)-1-[2-(trifluoromethyl)phenyl]pyrrol-2-yl]phenyl]-N,N-dimethyl-methanamine Hydrochloride] | 75% | 2200 nM | 1060 nM
5 | CN1CCC(CNC(=O)c2cccc(-c3ccc(-c4ccc(Br)cc4)n3-c3ccccc3C(F)(F)F)c2)CC1 [Example 10] | 62% | 780 nM | 340 nM
6 | CN1CCC(NC(=O)c2cccc(-c3ccc(-c4ccc(Br)cc4)n3-c3ccccc3C(F)(F)F)c2)CC1 [Example 11, hydrochloride] | 54% | 800 nM | 360 nM
7 | CN(C)CCN(C)C(=O)c1cccc(-c2ccc(-c3ccc(Br)cc3)n2-c2ccccc2C(F)(F)F)c1 [Example 12, hydrochloride] | 62% | 790 nM | 290 nM
8 | CN1CC[C@@H](NC(=O)c2cccc(-c3ccc(-c4ccc(Br)cc4)n3-c3ccccc3C(F)(F)F)c2)C1 [Example 13, hydrochloride] | 71% | 750 nM | 660 nM
9 | CN1CCC(NC(=O)c2cccc(-c3ccc(-c4ccc(Br)cc4)n3-c3ccccc3C(F)(F)F)c2)C1 (stereo not drawn) [Example 14, hydrochloride] | 68% | 830 nM | 
10 | CN(C)CCCOc1cccc(-c2ccc(-c3ccc(Br)cc3)n2-c2ccccc2C(F)(F)F)c1 [Example 17, 3-[3-[5-(4-Bromophenyl)-1-[2-(trifluoromethyl)phenyl]pyrrol-2-yl]phenoxy]-N,N-dimethyl-propan-1-amine Hydrochloride] | 65% | 1450 nM | 
11 | CN(C)CCNCc1cccc(-c2ccc(-c3ccc(Br)cc3)n2-c2ccccc2C(F)(F)F)c1 [Example 18, hydrochloride] | 67% | 1640 nM | 
12 | CC(C)c1ccc(-c2ccc(-c3cccc(C(=O)NCCN(C)C)c3)n2-c2ccccc2C(F)(F)F)cc1 [Example 22, hydrochloride] | 5% | > 10000 nM | 2750 nM
13 | COCCNC(=O)c1ccc(-c2ccc(-c3ccc(Cl)cc3)n2-c2ccccc2C(F)(F)F)cc1 [Example 86, 4-[5-(4-chlorophenyl)-1-[2-(trifluoromethyl)phenyl]pyrrol-2-yl]-N-(2-methoxyethyl)benzamide] |  |  | 340 nM
14 | CN1CCN(CCNC(=O)c2ccc(-c3ccc(-c4ccc(Cl)cc4)n3-c3ccccc3C(F)(F)F)cc2)CC1 [Example 88, hydrochloride] |  |  | 250 nM
15 | CN(C)CCNC(=O)c1ccc(-c2ccc(-c3ccc(Cl)cc3)n2-c2cnccc2C(F)(F)F)c(F)c1 [Example 89, hydrochloride] |  |  | 1360 nM
16 | CN(C)CCNC(=O)Nc1ccc(-c2ccc(-c3ccc(Cl)cc3)n2-c2ccccc2C(F)(F)F)cc1 [Example 90, 1-[4-[5-(4-Chlorophenyl)-1-[2-(trifluoromethyl)phenyl]pyrrol-2-yl]phenyl]-3-[2-(dimethylamino)-ethyl]urea Hydrochloride] |  |  | 500 nM

Row | SMILES | % mitotic cells (HeLa cells) | EC50 (HeLa cells) | GI50 (HCT116 cells)
17 | CN(C)CCNC(=O)c1ccc(-c2onc(-c3ccc(Cl)cc3)c2-c2ccccc2C(F)(F)F)cc1 [Example 92, Hydrochloride] |  |  | 30 nM
18 | CN(C)CCNC(=O)c1ccc(-c2[nH]nc(-c3ccc(Cl)cc3)c2-c2ccccc2C(F)(F)F)cc1 [Example 93, 4-[3-(4-chlorophenyl)-4-[2-(trifluoromethyl)phenyl]-1H-pyrazol-5-yl]-N-[2-(dimethylamino)ethyl] Benzamide Hydrochloride] |  |  | 260 nM
19 | NCCNC(=O)c1ccc(-c2ccc(-c3ccc(Cl)cc3)n2-c2ccccc2C(F)(F)F)cc1 [Example 94, hydrochloride] |  |  | 50 nM
20 | O=C(NCCN1CCOCC1)c1ccc(-c2ccc(-c3ccc(Cl)cc3)n2-c2ccccc2C(F)(F)F)cc1 [Example 95, hydrochloride] |  |  | 80 nM
21 | O=C(NCCN[C@H]1CCOC1)c1ccc(-c2ccc(-c3ccc(Cl)cc3)n2-c2cnccc2C(F)(F)F)cc1 [Example 96] |  |  | 30 nM
22 | CN(C)CCNC(=O)c1ccc(-c2ccc(-c3ccc(Cl)cc3)n2-c2ccc(F)cc2C(F)(F)F)cc1 [Example 97, hydrochloride] |  |  | 20 nM
23 | CN(C)CCNC(=O)c1ccc(-c2ccc(-c3ccc(Cl)cc3)n2-c2ccc(Cl)cc2C(F)(F)F)cc1 [Example 98, hydrochloride] |  |  | 20 nM
24 | CN(C)CCNC(=O)c1ccc(-c2ccc(-c3ccc(Cl)cc3)n2-c2ccccc2C(F)(F)F)s1 [Example 99, hydrochloride] |  |  | 40 nM
25 | O=C(Cc1ccc(-c2ccc(-c3ccc(Cl)cc3)n2-c2ccccc2C(F)(F)F)cc1)NCCN1CCOCC1 [Example 100, hydrochloride] |  |  | 130 nM
26 | O=C(Cc1ccc(-c2ccc(-c3ccc(Cl)cc3)n2-c2ccccc2C(F)(F)F)cc1)NCCN1CCNCC1 [Example 101, hydrochloride] |  |  | 60 nM
27 | O=C(c1cccc(-c2ccc(-c3ccc(Br)cc3)n2-c2ccccc2C(F)(F)F)c1)N1CCC(Cc2cccnc2)CC1 [Example 102, hydrochloride] |  |  | 380 nM
28 | C[C@@H](CNC(=O)c1ccc(-c2ccc(-c3ccc(Cl)cc3)n2-c2ccccc2C(F)(F)F)cc1)N(C)C [Example 103] |  |  | 40 nM
29 | O=C(NCCN1CCOCC1)c1ccc(-n2ncc(-c3ccc(Cl)cc3)c2-c2ccccc2C(F)(F)F)cc1 [Example 104, hydrochloride] |  |  | 150 nM
30 | CN(C)CCCNC(=O)c1ccc(-n2ncc(-c3ccc(Cl)cc3)c2-c2ccccc2C(F)(F)F)cc1 [Example 105, hydrochloride] |  |  | 100 nM
31 | CN(C)CCNC(=O)c1ccc(-n2ncc(-c3ccc(F)cc3)c2-c2ccccc2C(F)(F)F)cc1 [Example 106, hydrochloride] |  |  | 80 nM
32 | CN(C)CCNC(=O)C(C)(C)c1ccc(-c2ccc(-c3ccc(Cl)cc3)n2-c2ccccc2C(F)(F)F)cc1 [Example 107, hydrochloride] |  |  | 160 nM
